In brackets after ≈: the same amount, converted by molar mass.
Assays:
Format in all cases: functional
Enterococcus faecalis = assay: Antibacterial activity against Enterococcus faecalis assessed as inhibition of bacterial growth measured after 24 hrs incubation
Staphylococcus aureus [1] = assay: Antibacterial activity against Staphylococcus aureus assessed as inhibition of bacterial growth measured after 24 hrs incubation
Pseudomonas aeruginosa [2] = assay: Antibacterial activity against Pseudomonas aeruginosa assessed as inhibition of bacterial growth measured after 24 hrs incubation
Staphylococcus aureus [3] = assay: Antibacterial activity against Staphylococcus aureus ATCC 25923 assessed as inhibition of bacterial growth measured after 24 hrs incubation
Staphylococcus aureus [4] = assay: Antibacterial activity against methicillin-resistant Staphylococcus aureus N315 assessed as inhibition of bacterial growth measured after 24 hrs incubation
Staphylococcus aureus [5] = assay: Antibacterial activity against Staphylococcus aureus ATCC 29213 assessed as inhibition of bacterial growth measured after 24 hrs incubation
Acinetobacter baumannii = assay: Antibacterial activity against Acinetobacter baumannii assessed as inhibition of bacterial growth measured after 24 hrs incubation
Escherichia coli [6] = assay: Potency index, ratio of norfloxacin MIC to test compound MIC for antibacterial activity against Escherichia coli ATCC 25922 assessed as inhibition of bacterial growth measured after 24 hrs incubation
Pseudomonas aeruginosa [7] = assay: Antibacterial activity against Pseudomonas aeruginosa ATCC 27853 assessed as inhibition of bacterial growth measured after 24 hrs incubation
Escherichia coli [8] = assay: Antibacterial activity against Escherichia coli assessed as inhibition of bacterial growth measured after 24 hrs incubation
Klebsiella pneumoniae = assay: Antibacterial activity against Klebsiella pneumonia assessed as inhibition of bacterial growth measured after 24 hrs incubation
Escherichia coli [9] = assay: Potency index, ratio of norfloxacin MIC to test compound MIC for antibacterial activity against Escherichia coli assessed as inhibition of bacterial growth measured after 24 hrs incubation
Escherichia coli [10] = assay: Antibacterial activity against Escherichia coli ATCC 25922 assessed as inhibition of bacterial growth measured after 24 hrs incubation

Compound | MIC (Enterococcus faecalis) [µg/mL] | MIC (Staphylococcus aureus [1]) [µg/mL] | MIC (Pseudomonas aeruginosa [2]) [µg/mL] | MIC (Staphylococcus aureus [3]) [µg/mL] | MIC (Staphylococcus aureus [4]) [µg/mL] | MIC (Staphylococcus aureus [5]) [µg/mL] | MIC (Acinetobacter baumannii) [µg/mL] | Ratio (Escherichia coli [6]) | MIC (Pseudomonas aeruginosa [7]) [µg/mL] | MIC (Escherichia coli [8]) [µg/mL] | MIC (Klebsiella pneumoniae) [µg/mL] | Ratio (Escherichia coli [9]) | MIC (Escherichia coli [10]) [µg/mL]
CCCCn1cc(C(=O)O)c(=O)c2cc(F)c(N3CCN(C(=O)/C(C#N)=C/c4cn(CC(=O)OCC)c5ccccc45)CC3)cc21 | 1 (≈ 1.59 µM) | 1 (≈ 1.59 µM) | 4 (≈ 6.37 µM) | 4 (≈ 6.37 µM) | 2 (≈ 3.19 µM) | 1 (≈ 1.59 µM) | 0.5 (≈ 0.797 µM) | 2 | 1 (≈ 1.59 µM) | 0.25 (≈ 0.398 µM) | 16 (≈ 25.5 µM) | 8 | 0.25 (≈ 0.398 µM)
CCn1cc(C(=O)O)c(=O)c2cc(F)c(N3CCN(C(=O)/C(C#N)=C/c4cn(CC(=O)O)c5ccccc45)CC3)cc21 | 0.5 (≈ 0.875 µM) | 2 (≈ 3.5 µM) | 0.5 (≈ 0.875 µM) | 0.5 (≈ 0.875 µM) | 0.5 (≈ 0.875 µM) | 1 (≈ 1.75 µM) | 0.25 (≈ 0.437 µM) | – | 0.5 (≈ 0.875 µM) | 0.5 (≈ 0.875 µM) | 0.25 (≈ 0.437 µM) | – | 0.5 (≈ 0.875 µM)
CCn1cc(C(=O)O)c(=O)c2cc(F)c(N3CCN(C(=O)/C(C#N)=C/c4cn(CC5CCC5)c5ccccc45)CC3)cc21 | 0.5 (≈ 0.86 µM) | 0.25 (≈ 0.43 µM) | 0.25 (≈ 0.43 µM) | 0.25 (≈ 0.43 µM) | 0.25 (≈ 0.43 µM) | 0.25 (≈ 0.43 µM) | 0.25 (≈ 0.43 µM) | – | 4 (≈ 6.88 µM) | 0.5 (≈ 0.86 µM) | 0.25 (≈ 0.43 µM) | – | 0.5 (≈ 0.86 µM)
CCn1cc(C(=O)O)c(=O)c2cc(F)c(N3CCN(C(=O)/C(C#N)=C/c4cn(CC=C(C)C)c5ccccc45)CC3)cc21 | 1 (≈ 1.72 µM) | 1 (≈ 1.72 µM) | 8 (≈ 13.8 µM) | 4 (≈ 6.88 µM) | 8 (≈ 13.8 µM) | 4 (≈ 6.88 µM) | 2 (≈ 3.44 µM) | – | 1 (≈ 1.72 µM) | 64 (≈ 110 µM) | 0.25 (≈ 0.43 µM) | – | 0.5 (≈ 0.86 µM)
CCn1cc(C(=O)O)c(=O)c2cc(F)c(N3CCN(C(=O)/C(C#N)=C/c4cn(Cc5ccccc5F)c5ccccc45)CC3)cc21 | 16 (≈ 25.7 µM) | 32 (≈ 51.5 µM) | 1 (≈ 1.61 µM) | 16 (≈ 25.7 µM) | 0.25 (≈ 0.402 µM) | 32 (≈ 51.5 µM) | 0.5 (≈ 0.804 µM) | – | 0.5 (≈ 0.804 µM) | 0.5 (≈ 0.804 µM) | 1 (≈ 1.61 µM) | – | 0.25 (≈ 0.402 µM)
CCn1cc(C(=O)O)c(=O)c2cc(F)c(N3CCN(C(=O)/C(C#N)=C/c4cn(Cc5ccc(C)cc5)c5ccccc45)CC3)cc21 | 8 (≈ 13 µM) | 32 (≈ 51.8 µM) | 32 (≈ 51.8 µM) | 2 (≈ 3.24 µM) | 1 (≈ 1.62 µM) | 4 (≈ 6.48 µM) | 8 (≈ 13 µM) | – | 0.25 (≈ 0.405 µM) | 16 (≈ 25.9 µM) | 0.5 (≈ 0.809 µM) | – | 8 (≈ 13 µM)
C=CCn1cc(C(=O)O)c(=O)c2cc(F)c(N3CCN(C(=O)/C(C#N)=C/c4cn(CC(=O)OCC)c5ccccc45)CC3)cc21 | 0.25 (≈ 0.409 µM) | 16 (≈ 26.2 µM) | 256 (≈ 419 µM) | 64 (≈ 105 µM) | 128 (≈ 209 µM) | 16 (≈ 26.2 µM) | 8 (≈ 13.1 µM) | – | 4 (≈ 6.54 µM) | 1 (≈ 1.63 µM) | 1 (≈ 1.63 µM) | – | 32 (≈ 52.3 µM)
CCCCn1cc(/C=C(\C#N)C(=O)N2CCN(c3cc4c(cc3F)c(=O)c(C(=O)O)cn4CC)CC2)c2ccccc21 | 2 (≈ 3.51 µM) | 2 (≈ 3.51 µM) | 1 (≈ 1.76 µM) | 4 (≈ 7.02 µM) | 2 (≈ 3.51 µM) | 1 (≈ 1.76 µM) | 2 (≈ 3.51 µM) | – | 1 (≈ 1.76 µM) | 4 (≈ 7.02 µM) | 0.5 (≈ 0.878 µM) | – | 2 (≈ 3.51 µM)
CCn1cc(C(=O)O)c(=O)c2cc(F)c(N3CCN(C(=O)/C(C#N)=C/c4cn(CCN5CCOCC5)c5ccccc45)CC3)cc21 | 0.25 (≈ 0.399 µM) | 0.5 (≈ 0.798 µM) | 1 (≈ 1.6 µM) | 4 (≈ 6.38 µM) | 0.25 (≈ 0.399 µM) | 0.5 (≈ 0.798 µM) | 0.5 (≈ 0.798 µM) | – | 1 (≈ 1.6 µM) | 1 (≈ 1.6 µM) | 2 (≈ 3.19 µM) | – | 2 (≈ 3.19 µM)
CCn1cc(C(=O)O)c(=O)c2cc(F)c(N3CCN(C(=O)/C(C#N)=C/c4c[nH]c5cccc(Cl)c45)CC3)cc21 | 8 (≈ 14.6 µM) | 1 (≈ 1.82 µM) | 32 (≈ 58.4 µM) | 4 (≈ 7.3 µM) | 8 (≈ 14.6 µM) | 2 (≈ 3.65 µM) | 2 (≈ 3.65 µM) | – | 1 (≈ 1.82 µM) | 4 (≈ 7.3 µM) | 0.5 (≈ 0.912 µM) | – | 2 (≈ 3.65 µM)
C#CCn1cc(/C=C(\C#N)C(=O)N2CCN(c3cc4c(cc3F)c(=O)c(C(=O)O)cn4CC)CC2)c2ccccc21 | 0.5 (≈ 0.906 µM) | 0.25 (≈ 0.453 µM) | 0.5 (≈ 0.906 µM) | 0.25 (≈ 0.453 µM) | 0.25 (≈ 0.453 µM) | 0.5 (≈ 0.906 µM) | 0.25 (≈ 0.453 µM) | – | 4 (≈ 7.25 µM) | 1 (≈ 1.81 µM) | 0.25 (≈ 0.453 µM) | – | 0.5 (≈ 0.906 µM)
CCCCCn1cc(/C=C(\C#N)C(=O)N2CCN(c3cc4c(cc3F)c(=O)c(C(=O)O)cn4CC)CC2)c2ccccc21 | 8 (≈ 13.7 µM) | 32 (≈ 54.8 µM) | 4 (≈ 6.85 µM) | 1 (≈ 1.71 µM) | 16 (≈ 27.4 µM) | 8 (≈ 13.7 µM) | 2 (≈ 3.43 µM) | – | 0.5 (≈ 0.857 µM) | 2 (≈ 3.43 µM) | 0.5 (≈ 0.857 µM) | – | 4 (≈ 6.85 µM)
CCn1cc(C(=O)O)c(=O)c2cc(F)c(N3CCN(C(=O)/C(C#N)=C/c4c[nH]c5c(C)cccc45)CC3)cc21 | 4 (≈ 7.58 µM) | 4 (≈ 7.58 µM) | 4 (≈ 7.58 µM) | 4 (≈ 7.58 µM) | 4 (≈ 7.58 µM) | 4 (≈ 7.58 µM) | 2 (≈ 3.79 µM) | – | 1 (≈ 1.9 µM) | 1 (≈ 1.9 µM) | 0.5 (≈ 0.948 µM) | – | 2 (≈ 3.79 µM)
CCCCCCn1cc(C(=O)O)c(=O)c2cc(F)c(N3CCN(C(=O)/C(C#N)=C/c4cn(CC(=O)OCC)c5ccccc45)CC3)cc21 | 0.25 (≈ 0.381 µM) | 64 (≈ 97.6 µM) | 1 (≈ 1.53 µM) | 4 (≈ 6.1 µM) | 128 (≈ 195 µM) | 8 (≈ 12.2 µM) | 8 (≈ 12.2 µM) | – | 16 (≈ 24.4 µM) | 32 (≈ 48.8 µM) | 16 (≈ 24.4 µM) | – | 0.5 (≈ 0.763 µM)
CCn1cc(C(=O)O)c(=O)c2cc(F)c(N3CCN(C(=O)/C(C#N)=C/c4c[nH]c5ccccc45)CC3)cc21 | 0.25 (≈ 0.487 µM) | 4 (≈ 7.79 µM) | 1 (≈ 1.95 µM) | 1 (≈ 1.95 µM) | 0.5 (≈ 0.974 µM) | 0.5 (≈ 0.974 µM) | 0.25 (≈ 0.487 µM) | – | 0.5 (≈ 0.974 µM) | 0.5 (≈ 0.974 µM) | 0.25 (≈ 0.487 µM) | – | 0.25 (≈ 0.487 µM)
CCCCCCCCn1cc(C(=O)O)c(=O)c2cc(F)c(N3CCN(C(=O)/C(C#N)=C/c4cn(CC(=O)OCC)c5ccccc45)CC3)cc21 | 1 (≈ 1.46 µM) | 32 (≈ 46.8 µM) | 16 (≈ 23.4 µM) | 4 (≈ 5.85 µM) | 8 (≈ 11.7 µM) | 256 (≈ 374 µM) | 2 (≈ 2.92 µM) | – | 16 (≈ 23.4 µM) | 0.25 (≈ 0.366 µM) | 4 (≈ 5.85 µM) | – | 0.5 (≈ 0.731 µM)
CCn1cc(C(=O)O)c(=O)c2cc(F)c(N3CCN(C(=O)/C(C#N)=C/c4cn(Cc5ccc(Cl)cc5)c5ccccc45)CC3)cc21 | 32 (≈ 50.1 µM) | 64 (≈ 100 µM) | 0.5 (≈ 0.784 µM) | 16 (≈ 25.1 µM) | 32 (≈ 50.1 µM) | 16 (≈ 25.1 µM) | 0.5 (≈ 0.784 µM) | – | 1 (≈ 1.57 µM) | 1 (≈ 1.57 µM) | 0.5 (≈ 0.784 µM) | – | 4 (≈ 6.27 µM)

From ChEMBL document CHEMBL5512655, “Discovery of indolylacryloyl-derived oxacins as novel potential broad-spectrum antibacterial candidates” (Eur J Med Chem, 2024)
